According to ChEMBL document CHEMBL3045364, “Synthesis, structure, and estrogenic activity of 2- and 3-substituted 2,3-dihydro-4H-1-benzopyran-4-ones” (2013):
Active and inactive are the calls of the source. The calls are words filed in the database; no cut-off is given here.

Tests used:
[1] = target: T1, Estrogen receptor (Homo sapiens) (UniProt P03372); experiment: Displacement of [3H]E2 from Homo sapiens (human) recombinant ER-alpha by HAP binding assay
T1 sequence (whole entry): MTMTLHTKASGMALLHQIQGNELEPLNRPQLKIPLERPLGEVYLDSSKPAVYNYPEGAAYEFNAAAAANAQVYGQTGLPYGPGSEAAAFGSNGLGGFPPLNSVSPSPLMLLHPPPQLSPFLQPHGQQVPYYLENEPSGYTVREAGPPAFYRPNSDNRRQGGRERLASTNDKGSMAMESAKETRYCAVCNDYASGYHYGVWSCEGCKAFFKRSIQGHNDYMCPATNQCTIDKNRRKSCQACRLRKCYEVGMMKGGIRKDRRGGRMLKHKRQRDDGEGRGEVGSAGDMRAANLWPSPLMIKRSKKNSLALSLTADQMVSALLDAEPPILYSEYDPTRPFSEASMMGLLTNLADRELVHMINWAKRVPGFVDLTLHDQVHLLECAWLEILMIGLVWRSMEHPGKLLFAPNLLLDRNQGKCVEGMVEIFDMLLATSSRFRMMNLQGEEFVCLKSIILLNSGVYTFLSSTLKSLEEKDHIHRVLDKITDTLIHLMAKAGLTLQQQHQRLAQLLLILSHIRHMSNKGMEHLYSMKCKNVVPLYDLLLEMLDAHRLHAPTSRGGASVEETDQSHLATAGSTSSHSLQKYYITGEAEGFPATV

MVLN [2] = experiment: Estrogenic activity in Homo sapiens (human) MVLN cells assessed as induction of ERE-dependent transcription at 1 uM after 24 hr by luciferase reporter gene assay; format: functional
MVLN [3] = experiment: Estrogenic activity in Homo sapiens (human) MVLN cells assessed as induction of ERE-dependent transcription at 10 uM after 24 hr by luciferase reporter gene assay in presence of 0.1 uM antiestrogen, fulvestrant; format: functional, cell-based
MVLN [4] = experiment: Estrogenic activity in Homo sapiens (human) MVLN cells assessed as induction of ERE-dependent transcription at 10 uM after 24 hr by luciferase reporter gene assay; format: functional, cell-based

inhibition [1]	SMILES	Activity (MVLN [2])	Activity (MVLN [3])	Activity (MVLN [4])
inactive	COc1cc(OC)c(/C=C2\COc3ccccc3C2=O)c(OC)c1	134%	–	–
inactive	Cc1ccc(/C=C2\COc3ccccc3C2=O)cc1	–	–	–
inactive	COc1ccc2c(c1)OC1(CCCCC1)CC2=O	inactive	–	–
inactive	COc1ccc2c(c1)OC1(CCC(c3ccccc3)CC1)CC2=O (stereo not drawn)	–	–	–
inactive	COc1cccc(/C=C2\COc3ccccc3C2=O)c1	243%	inactive	Active
inactive	COc1ccc2c(c1)OC1(CCC(C(C)(C)C)CC1)CC2=O (stereo not drawn)	–	–	–
inactive	O=C1/C(=C/c2ccccc2)COc2ccccc21	inactive	–	–
inactive	O=C1CC2(CCCCC2)Oc2cc(O)ccc21	279%	inactive	Active
inactive	O=C1/C(=C/c2ccc(O)cc2)COc2ccccc21	236%	inactive	Active
inactive	CN(C)c1ccc(/C=C2\COc3ccccc3C2=O)cc1	145%	–	–
